In ChEMBL document CHEMBL4840313, “Bioisosteric replacements of the indole moiety for the development of a potent and selective PI3Kδ inhibitor: Design, synthesis and biological evaluation” (Eur J Med Chem, 2021):
Values belong to the molecule of their own block, whether it stands above or below them.

Legend:
[1] = biological target: T1, Phosphatidylinositol 4,5-bisphosphate 3-kinase catalytic subunit delta isoform (Homo sapiens, UniProt O00329); assay: Inhibition of PI3Kdelta (unknown origin) using PIP2 as substrate in presence of ATP measured after 60 mins by ADP-Glo assay
T1 sequence (O00329 whole entry): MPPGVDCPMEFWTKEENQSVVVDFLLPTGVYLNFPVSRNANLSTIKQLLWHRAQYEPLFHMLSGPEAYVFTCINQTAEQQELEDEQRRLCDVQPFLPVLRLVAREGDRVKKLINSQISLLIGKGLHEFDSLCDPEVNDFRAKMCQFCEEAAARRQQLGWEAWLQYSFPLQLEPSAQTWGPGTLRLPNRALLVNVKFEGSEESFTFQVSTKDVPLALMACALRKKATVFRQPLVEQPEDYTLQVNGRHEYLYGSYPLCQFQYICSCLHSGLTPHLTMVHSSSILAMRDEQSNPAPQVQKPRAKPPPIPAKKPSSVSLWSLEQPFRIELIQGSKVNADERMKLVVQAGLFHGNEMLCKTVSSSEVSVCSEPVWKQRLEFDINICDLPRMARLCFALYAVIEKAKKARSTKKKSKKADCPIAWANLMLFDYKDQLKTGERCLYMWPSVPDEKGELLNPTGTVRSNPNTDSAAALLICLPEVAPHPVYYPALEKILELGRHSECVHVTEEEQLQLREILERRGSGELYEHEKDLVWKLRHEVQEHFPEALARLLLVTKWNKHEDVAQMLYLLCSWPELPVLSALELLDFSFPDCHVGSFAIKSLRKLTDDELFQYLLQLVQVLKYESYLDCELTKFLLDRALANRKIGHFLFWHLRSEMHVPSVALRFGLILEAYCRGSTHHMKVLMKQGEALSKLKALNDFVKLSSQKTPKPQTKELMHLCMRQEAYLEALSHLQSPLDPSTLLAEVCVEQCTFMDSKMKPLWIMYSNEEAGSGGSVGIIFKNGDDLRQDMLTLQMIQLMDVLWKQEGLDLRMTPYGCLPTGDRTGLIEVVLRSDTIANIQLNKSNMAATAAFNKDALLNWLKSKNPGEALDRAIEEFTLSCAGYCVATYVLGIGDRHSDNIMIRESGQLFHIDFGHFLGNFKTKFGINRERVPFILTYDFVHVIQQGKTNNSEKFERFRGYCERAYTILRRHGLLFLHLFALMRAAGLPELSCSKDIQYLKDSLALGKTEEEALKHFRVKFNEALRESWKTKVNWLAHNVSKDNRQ

[2] = biological target: Phosphatidylinositol 4,5-bisphosphate 3-kinase catalytic subunit alpha isoform (Homo sapiens, UniProt P42336); assay: Inhibition of PI3Kalpha (unknown origin) using PIP2 as substrate in presence of ATP measured after 60 mins by ADP-Glo assay
Chain of Phosphatidylinositol 4,5-bisphosphate 3-kinase catalytic subunit alpha isoform (P42336 whole entry, canonical isoform): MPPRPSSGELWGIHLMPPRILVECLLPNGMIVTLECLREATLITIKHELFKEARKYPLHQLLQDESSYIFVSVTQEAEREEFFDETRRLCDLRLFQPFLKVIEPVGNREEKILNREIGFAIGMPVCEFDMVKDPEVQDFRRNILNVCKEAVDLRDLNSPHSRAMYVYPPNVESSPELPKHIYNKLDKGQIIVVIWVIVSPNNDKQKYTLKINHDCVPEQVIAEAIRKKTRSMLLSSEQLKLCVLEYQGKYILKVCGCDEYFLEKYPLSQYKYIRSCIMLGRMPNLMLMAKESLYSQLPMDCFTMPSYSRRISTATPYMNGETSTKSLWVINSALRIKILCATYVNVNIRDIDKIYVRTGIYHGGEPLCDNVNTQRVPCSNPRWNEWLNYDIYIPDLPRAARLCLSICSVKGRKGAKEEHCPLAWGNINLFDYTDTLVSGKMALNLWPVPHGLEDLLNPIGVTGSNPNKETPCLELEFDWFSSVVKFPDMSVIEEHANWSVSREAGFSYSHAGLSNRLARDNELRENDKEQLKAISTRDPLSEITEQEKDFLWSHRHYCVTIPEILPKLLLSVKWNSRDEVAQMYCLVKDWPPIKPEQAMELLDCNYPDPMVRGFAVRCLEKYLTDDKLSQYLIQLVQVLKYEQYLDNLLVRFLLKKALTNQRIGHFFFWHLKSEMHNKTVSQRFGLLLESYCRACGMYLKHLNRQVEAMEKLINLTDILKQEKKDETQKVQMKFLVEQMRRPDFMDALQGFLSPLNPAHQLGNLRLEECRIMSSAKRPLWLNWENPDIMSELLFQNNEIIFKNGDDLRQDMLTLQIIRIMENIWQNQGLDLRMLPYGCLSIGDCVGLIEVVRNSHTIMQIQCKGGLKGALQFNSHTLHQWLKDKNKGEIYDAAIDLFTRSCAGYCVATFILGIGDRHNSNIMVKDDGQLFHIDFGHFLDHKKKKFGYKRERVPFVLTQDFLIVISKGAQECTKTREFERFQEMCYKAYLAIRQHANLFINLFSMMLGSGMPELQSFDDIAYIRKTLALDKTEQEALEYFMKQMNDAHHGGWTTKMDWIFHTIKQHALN

[3] = biological target: Phosphatidylinositol 4,5-bisphosphate 3-kinase catalytic subunit beta isoform (Homo sapiens, UniProt P42338); assay: Inhibition of PI3Kbeta (unknown origin) using PIP2 as substrate in presence of ATP measured after 60 mins by ADP-Glo assay
Chain of Phosphatidylinositol 4,5-bisphosphate 3-kinase catalytic subunit beta isoform (P42338 whole entry, canonical isoform): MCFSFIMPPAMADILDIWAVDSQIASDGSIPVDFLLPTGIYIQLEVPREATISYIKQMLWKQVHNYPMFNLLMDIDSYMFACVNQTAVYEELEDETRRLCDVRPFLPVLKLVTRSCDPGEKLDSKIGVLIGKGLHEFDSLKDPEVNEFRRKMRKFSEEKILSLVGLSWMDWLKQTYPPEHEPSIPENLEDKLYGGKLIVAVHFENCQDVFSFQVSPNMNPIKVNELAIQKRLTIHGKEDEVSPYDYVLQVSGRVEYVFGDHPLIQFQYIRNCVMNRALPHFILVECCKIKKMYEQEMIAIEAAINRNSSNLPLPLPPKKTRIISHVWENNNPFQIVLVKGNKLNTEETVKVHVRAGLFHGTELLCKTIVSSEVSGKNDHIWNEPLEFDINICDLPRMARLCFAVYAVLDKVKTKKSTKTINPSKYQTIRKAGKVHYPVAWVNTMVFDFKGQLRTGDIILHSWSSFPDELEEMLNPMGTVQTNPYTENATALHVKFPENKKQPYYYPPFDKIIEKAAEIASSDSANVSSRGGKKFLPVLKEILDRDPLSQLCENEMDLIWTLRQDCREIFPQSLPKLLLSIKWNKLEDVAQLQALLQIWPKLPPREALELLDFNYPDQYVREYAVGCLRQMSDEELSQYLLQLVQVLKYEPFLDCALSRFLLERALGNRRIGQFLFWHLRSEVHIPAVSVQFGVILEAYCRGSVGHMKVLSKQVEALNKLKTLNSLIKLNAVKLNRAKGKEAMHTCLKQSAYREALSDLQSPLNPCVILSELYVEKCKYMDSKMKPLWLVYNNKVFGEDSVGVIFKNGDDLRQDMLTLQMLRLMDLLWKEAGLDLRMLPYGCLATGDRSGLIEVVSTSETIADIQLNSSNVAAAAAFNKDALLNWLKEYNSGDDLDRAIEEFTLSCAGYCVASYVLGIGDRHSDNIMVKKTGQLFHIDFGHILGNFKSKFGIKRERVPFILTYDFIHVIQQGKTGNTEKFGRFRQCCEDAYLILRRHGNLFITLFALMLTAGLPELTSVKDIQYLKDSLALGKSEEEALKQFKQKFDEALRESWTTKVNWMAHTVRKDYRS

[4] = biological target: Phosphatidylinositol 4,5-bisphosphate 3-kinase catalytic subunit gamma isoform (Homo sapiens, UniProt P48736); assay: Inhibition of PI3Kgamma (unknown origin) using PIP2 as substrate in presence of ATP measured after 60 mins by ADP-Glo assay
Chain of Phosphatidylinositol 4,5-bisphosphate 3-kinase catalytic subunit gamma isoform (P48736 whole entry, canonical isoform): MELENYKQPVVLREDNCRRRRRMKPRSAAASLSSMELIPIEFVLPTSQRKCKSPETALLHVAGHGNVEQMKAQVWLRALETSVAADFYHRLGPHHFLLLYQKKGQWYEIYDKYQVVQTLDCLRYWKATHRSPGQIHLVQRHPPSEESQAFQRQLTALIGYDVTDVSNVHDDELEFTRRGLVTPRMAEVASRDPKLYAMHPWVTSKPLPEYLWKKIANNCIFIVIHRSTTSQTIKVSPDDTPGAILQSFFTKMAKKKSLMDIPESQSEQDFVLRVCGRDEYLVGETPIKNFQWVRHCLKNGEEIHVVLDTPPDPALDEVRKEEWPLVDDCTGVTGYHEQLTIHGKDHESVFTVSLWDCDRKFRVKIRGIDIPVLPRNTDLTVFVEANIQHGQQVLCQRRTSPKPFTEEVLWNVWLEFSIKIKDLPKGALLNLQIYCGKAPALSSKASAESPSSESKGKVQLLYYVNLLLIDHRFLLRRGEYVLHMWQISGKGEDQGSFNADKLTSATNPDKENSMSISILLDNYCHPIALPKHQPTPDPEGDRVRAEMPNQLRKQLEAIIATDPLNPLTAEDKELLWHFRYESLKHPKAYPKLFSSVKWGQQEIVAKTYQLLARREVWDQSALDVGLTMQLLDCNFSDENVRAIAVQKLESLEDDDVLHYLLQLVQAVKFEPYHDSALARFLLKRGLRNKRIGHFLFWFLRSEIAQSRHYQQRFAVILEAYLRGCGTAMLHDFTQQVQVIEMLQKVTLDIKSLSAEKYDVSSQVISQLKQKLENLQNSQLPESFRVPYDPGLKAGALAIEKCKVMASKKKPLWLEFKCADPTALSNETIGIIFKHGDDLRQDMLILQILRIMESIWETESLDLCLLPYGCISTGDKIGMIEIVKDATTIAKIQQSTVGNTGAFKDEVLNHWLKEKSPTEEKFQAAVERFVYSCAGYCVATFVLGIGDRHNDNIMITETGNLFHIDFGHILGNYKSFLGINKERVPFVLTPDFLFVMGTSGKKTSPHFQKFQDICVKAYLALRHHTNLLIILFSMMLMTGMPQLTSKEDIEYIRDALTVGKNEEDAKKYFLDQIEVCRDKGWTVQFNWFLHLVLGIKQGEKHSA

[5] = Induction of cell cycle arrest in human MOLM16 cells assessed as accumulation at subG1 phase at 1 uM incubated for 24 hrs by propidium iodide /RNase staining based flow cytometry(Rvb =4.02 %); assay type: functional, MOLM-16
[6] = Induction of cell cycle arrest in human MOLM16 cells assessed as accumulation at G1 phase at 1 uM incubated for 24 hrs by propidium iodide /RNase staining based flow cytometry(Rvb =46.8 %); assay type: functional, MOLM-16
[7] = Induction of cell cycle arrest in human MOLM16 cells assessed as accumulation at S phase at 1 uM incubated for 24 hrs by propidium iodide /RNase staining based flow cytometry(Rvb =31.8 %); assay type: functional, MOLM-16
[8] = Induction of cell cycle arrest in human MOLM16 cells assessed as accumulation at G2 phase at 1 uM incubated for 24 hrs by propidium iodide /RNase staining based flow cytometry(Rvb =14.7 %); assay type: functional, MOLM-16
[9] = Induction of cell cycle arrest in human MOLM16 cells assessed as accumulation at subG1 phase at 2 uM incubated for 24 hrs by propidium iodide /RNase staining based flow cytometry(Rvb =4.02 %); assay type: functional, MOLM-16
[10] = Induction of cell cycle arrest in human MOLM16 cells assessed as accumulation at G1 phase at 2 uM incubated for 24 hrs by propidium iodide /RNase staining based flow cytometry(Rvb =46.8 %); assay type: functional, MOLM-16
[11] = Induction of cell cycle arrest in human MOLM16 cells assessed as accumulation at S phase at 2 uM incubated for 24 hrs by propidium iodide /RNase staining based flow cytometry(Rvb =31.8 %); assay type: functional, MOLM-16
[12] = Induction of cell cycle arrest in human MOLM16 cells assessed as accumulation at G2 phase at 2 uM incubated for 24 hrs by propidium iodide /RNase staining based flow cytometry(Rvb =14.7 %); assay type: functional, MOLM-16
[13] = Induction of cell cycle arrest in human MOLM16 cells assessed as accumulation at subG1 phase at 5 uM incubated for 24 hrs by propidium iodide /RNase staining based flow cytometry(Rvb =4.02 %); assay type: functional, MOLM-16
[14] = Induction of cell cycle arrest in human MOLM16 cells assessed as accumulation at G1 phase at 5 uM incubated for 24 hrs by propidium iodide /RNase staining based flow cytometry(Rvb =46.8 %); assay type: functional, MOLM-16
[15] = Induction of cell cycle arrest in human MOLM16 cells assessed as accumulation at S phase at 5 uM incubated for 24 hrs by propidium iodide /RNase staining based flow cytometry(Rvb =31.8 %); assay type: functional, MOLM-16
[16] = Induction of cell cycle arrest in human MOLM16 cells assessed as accumulation at G2 phase at 5 uM incubated for 24 hrs by propidium iodide /RNase staining based flow cytometry(Rvb =14.7 %); assay type: functional, MOLM-16
[17] = Induction of apoptosis in human MOLM16 cells assessed as viable cells at 1 uM incubated for 48 hrs by Annexin V and propidium iodide Staining based assay (reference value: 76.3 %); assay type: functional, MOLM-16; conditions: read-out: Activity
[18] = Induction of apoptosis in human MOLM16 cells assessed as early apoptotic cells at 1 uM incubated for 48 hrs by Annexin V and propidium iodide Staining based assay (reference value: 16.4 %); assay type: functional, MOLM-16
[19] = Induction of apoptosis in human MOLM16 cells assessed as late apoptotic cells at 1 uM incubated for 48 hrs by Annexin V and propidium iodide Staining based assay (reference value: 6.77 %); assay type: functional, MOLM-16
[20] = Induction of apoptosis in human MOLM16 cells assessed as necrotic cells at 1 uM incubated for 48 hrs by Annexin V and propidium iodide Staining based assay (reference value: 0.44 %); assay type: functional, MOLM-16
[21] = Induction of apoptosis in human MOLM16 cells assessed as viable cells at 2 uM incubated for 48 hrs by Annexin V and propidium iodide Staining based assay (reference value: 76.3 %); assay type: functional, MOLM-16; conditions: read-out: Activity
[22] = Induction of apoptosis in human MOLM16 cells assessed as early apoptotic cells at 2 uM incubated for 48 hrs by Annexin V and propidium iodide Staining based assay (reference value: 16.4 %); assay type: functional, MOLM-16
[23] = Induction of apoptosis in human MOLM16 cells assessed as late apoptotic cells at 2 uM incubated for 48 hrs by Annexin V and propidium iodide Staining based assay (reference value: 6.77 %); assay type: functional, MOLM-16
[24] = Induction of apoptosis in human MOLM16 cells assessed as necrotic cells at 2 uM incubated for 48 hrs by Annexin V and propidium iodide Staining based assay (reference value: 0.44 %); assay type: functional, MOLM-16
[25] = Induction of apoptosis in human MOLM16 cells assessed as viable cells at 5 uM incubated for 48 hrs by Annexin V and propidium iodide Staining based assay (reference value: 76.3 %); assay type: functional, MOLM-16; conditions: read-out: Activity
[26] = Induction of apoptosis in human MOLM16 cells assessed as early apoptotic cells at 5 uM incubated for 48 hrs by Annexin V and propidium iodide Staining based assay (reference value: 16.4 %); assay type: functional, MOLM-16
[27] = Induction of apoptosis in human MOLM16 cells assessed as late apoptotic cells at 5 uM incubated for 48 hrs by Annexin V and propidium iodide Staining based assay (reference value: 6.77 %); assay type: functional, MOLM-16
[28] = Induction of apoptosis in human MOLM16 cells assessed as necrotic cells at 5 uM incubated for 48 hrs by Annexin V and propidium iodide Staining based assay (reference value: 0.44 %); assay type: functional, MOLM-16

Compound: O=S(=O)(Nc1cc(-c2ccc3scnc3c2)cnc1Cl)c1ccccc1
IC50 [1]: 0.604 µM

Compound: O=S(=O)(Nc1cc(-c2cc3cc[nH]c3cn2)cnc1Cl)c1ccccc1
IC50 [1]: 1.31 µM

Compound: O=S(=O)(Nc1cc(-c2ccc3[nH]ncc3n2)cnc1Cl)c1ccccc1
IC50 [1]: 0.294 µM

Compound: O=S(=O)(Nc1cc(-c2ccc3[nH]ccc3n2)cnc1Cl)c1ccccc1
IC50 [1]: 3.06 µM

Compound: O=S(=O)(Nc1cc(-c2ccc3c(c2)CCN3)cnc1Cl)c1ccccc1
IC50 [1]: 0.492 µM

Compound: O=S(=O)(Nc1cc(-c2ccc3[nH]ccc3c2)cnc1Cl)c1ccccc1
IC50 [1]: 0.334 µM

Compound: O=S(=O)(Nc1cc(-c2cc3cn[nH]c3cn2)cnc1Cl)c1ccccc1
IC50 [1]: 0.527 µM

Compound: O=S(=O)(Nc1cc(-c2ccc3sccc3c2)cnc1Cl)c1ccccc1
IC50 [1]: 0.859 µM

Compound: CC[C@H](Nc1ncnc2[nH]cnc12)c1nc2cccc(F)c2c(=O)n1-c1ccccc1 [IDELALISIB]
Activity [5]: 3.44% | Activity [6]: 47.9% | Activity [7]: 31.7% | Activity [8]: 13.9% | Activity [9]: 5.71% | Activity [10]: 48.4% | Activity [11]: 32.9% | Activity [12]: 12.4% | Activity [13]: 2.6% | Activity [14]: 49.6% | Activity [15]: 32.8% | Activity [16]: 13.6% | viability at 1 µM [17]: 77% | Activity [18]: 13.9% | Activity [19]: 7.95% | Activity [20]: 1.14% | viability at 2 µM [21]: 73.2% | Activity [22]: 18.2% | Activity [23]: 10.1% | Activity [24]: 0.5% | viability at 5 µM [25]: 74.6% | Activity [26]: 14.8% | Activity [27]: 9.19% | Activity [28]: 1.49%

Continued by falling IC50 [1], values first:

IC50 [1]: 0.209 µM
Compound: O=S(=O)(Nc1cc(-c2cnc3occc3c2)cnc1Cl)c1ccccc1

IC50 [1]: 0.204 µM
Compound: O=S(=O)(Nc1cc(-c2cnc3scnc3c2)cnc1Cl)c1ccccc1

IC50 [1]: 0.123 µM
Compound: O=S(=O)(Nc1cc(-c2cnc3c(c2)CCN3)cnc1Cl)c1ccccc1

IC50 [1]: 0.049 µM | IC50 [2]: 0.059 µM | IC50 [3]: 0.08 µM | IC50 [4]: 0.057 µM
Compound: O=S(=O)(Nc1cc(-c2cnc3[nH]ccc3n2)cnc1Cl)c1ccccc1

IC50 [1]: 0.037 µM
Compound: O=S(=O)(Nc1cc(-c2ccc3ocnc3c2)cnc1Cl)c1ccccc1

IC50 [1]: 0.036 µM
Compound: O=S(=O)(Nc1cc(-c2ccc3[nH]ncc3c2)cnc1Cl)c1ccccc1

IC50 [1]: 0.028 µM
Compound: O=S(=O)(Nc1cc(-c2ccc3[nH]cnc3c2)cnc1Cl)c1ccccc1

IC50 [1]: 0.017 µM
Compound: O=S(=O)(Nc1cc(-c2ccc3occc3c2)cnc1Cl)c1ccccc1

IC50 [1]: 0.016 µM | IC50 [2]: 0.028 µM | IC50 [3]: 0.026 µM | IC50 [4]: 0.021 µM
Compound: O=S(=O)(Nc1cc(-c2cnc3[nH]cnc3c2)cnc1Cl)c1ccccc1

IC50 [1]: 0.015 µM
Compound: O=S(=O)(Nc1cc(-c2ccc3[nH]nnc3c2)cnc1Cl)c1ccccc1
